From ChEMBL document CHEMBL1201862, “PubChem BioAssay data set” (2004)
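Exposure lasted 48 hours, with cells grown in 96-well plates and compounds tested at five concentrations. The concentration for 50% growth inhibition is given as GI50.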 The source made the active and inactive calls. Cut-off read from the data, not from the text of the source: active = GI50 up to about 1.1 µM and inactive = higher.

Assays:
Test in all cases: DTP human tumour cell line panel, 48 h
SK-MEL-28 = tested on: SK-MEL-28
NCI-H460 = tested on: NCI-H460
HOP-92 = tested on: HOP-92
SR = tested on: SR
SW-620 = tested on: SW-620
OVCAR-8 = tested on: OVCAR-8
SN12C = tested on: SN12C
Malme-3M = tested on: Malme-3M
KM12 = tested on: KM12
SNB-75 = tested on: SNB-75
UACC-257 = tested on: UACC-257
SK-MEL-2 = tested on: SK-MEL-2
A549 = tested on: A549
NCI-H226 = tested on: NCI-H226
T47D = tested on: T47D
OVCAR-3 = tested on: OVCAR-3
HCT-15 = tested on: HCT-15
HL-60 = tested on: HL-60
SF-539 = tested on: SF-539

Structure (SMILES) | GI50 (SK-MEL-28) | GI50 (NCI-H460) | GI50 (HOP-92) | GI50 (SR) | GI50 (SW-620) | GI50 (OVCAR-8) | GI50 (SN12C) | GI50 (Malme-3M) | GI50 (KM12) | GI50 (SNB-75) | GI50 (UACC-257) | GI50 (SK-MEL-2) | GI50 (A549) | GI50 (NCI-H226) | GI50 (T47D) | GI50 (OVCAR-3) | GI50 (HCT-15) [µM] | GI50 (HL-60) | GI50 (SF-539)
NNC1=NC(=O)NC(=O)C1 | > 100 µM (inactive) | > 100 µM (inactive) | 66.4 µM (inactive) | > 100 µM (inactive) | > 100 µM (inactive) | > 100 µM (inactive) | > 100 µM (inactive) | > 100 µM (inactive) | > 100 µM (inactive) | > 100 µM (inactive) | > 100 µM (inactive) | > 100 µM (inactive) | > 100 µM (inactive) | > 100 µM (inactive) | > 100 µM (inactive) | > 100 µM (inactive) | > 100 | > 100 µM (inactive) | –
CC(=O)Nc1ncc(Sc2ccccc2C(=O)O)s1 | > 100 µM (inactive) | > 100 µM (inactive) | > 100 µM (inactive) | > 100 µM (inactive) | > 100 µM (inactive) | > 100 µM (inactive) | > 100 µM (inactive) | – | > 100 µM (inactive) | > 100 µM (inactive) | > 100 µM (inactive) | > 100 µM (inactive) | > 100 µM (inactive) | > 100 µM (inactive) | > 100 µM (inactive) | > 100 µM (inactive) | > 100 | > 100 µM (inactive) | > 100 µM (inactive)
C=CCC1(OC(C)=O)C2OC(=O)C1(O)OCC2O (stereo not drawn) | > 100 µM (inactive) | > 100 µM (inactive) | – | > 100 µM (inactive) | > 100 µM (inactive) | > 100 µM (inactive) | > 100 µM (inactive) | > 100 µM (inactive) | > 100 µM (inactive) | > 39.9 µM (inactive) | > 100 µM (inactive) | > 100 µM (inactive) | > 100 µM (inactive) | > 100 µM (inactive) | > 100 µM (inactive) | > 100 µM (inactive) | > 100 | > 100 µM (inactive) | > 100 µM (inactive)
C=C[C@@H](OCOCC[Si](C)(C)C)[C@@H](CC)OC(CCCOC(=O)C(C)(C)C)OC (stereo partly drawn) | 34.5 µM (inactive) | 54.2 µM (inactive) | 81.1 µM (inactive) | 41.6 µM (inactive) | 26.1 µM (inactive) | 38.5 µM (inactive) | 45.3 µM (inactive) | – | 24 µM (inactive) | 31 µM (inactive) | 34.6 µM (inactive) | 21.4 µM (inactive) | 31.5 µM (inactive) | 21.9 µM (inactive) | 19.4 µM (inactive) | 40.9 µM (inactive) | 22.1 | 18.4 µM (inactive) | –
COc1ccc(OC2OC(CO)C(OCc3ccccc3)C(OCc3ccccc3)C2OCc2ccccc2)cc1 (stereo not drawn) | > 100 µM (inactive) | 15.8 µM (inactive) | – | 15.5 µM (inactive) | > 100 µM (inactive) | > 100 µM (inactive) | 17.5 µM (inactive) | 39.1 µM (inactive) | 72.9 µM (inactive) | 11.3 µM (inactive) | > 100 µM (inactive) | > 100 µM (inactive) | 11.1 µM (inactive) | > 100 µM (inactive) | 18.8 µM (inactive) | > 100 µM (inactive) | – | 88.9 µM (inactive) | 63.2 µM (inactive)
CC(C)=CCC[C@@H](C)C1=C(Nc2ccccc2)C(=O)C(C)=C(O)C1=O | 8.02 µM (inactive) | 1.63 µM (inactive) | 2.87 µM (inactive) | 0.631 µM (active) | 3.78 µM (inactive) | 2.1 µM (inactive) | 4.19 µM (inactive) | 4.2 µM (inactive) | 3.42 µM (inactive) | 3.11 µM (inactive) | 5.53 µM (inactive) | 2.52 µM (inactive) | 2.56 µM (inactive) | 3.13 µM (inactive) | 6.7 µM (inactive) | 2.21 µM (inactive) | 0.875 | 0.303 µM (active) | –
CCCCS(=O)(=O)CCC(N)P(=O)(O)O (stereo not drawn) | > 100 µM (inactive) | > 100 µM (inactive) | > 100 µM (inactive) | > 100 µM (inactive) | > 100 µM (inactive) | > 100 µM (inactive) | > 100 µM (inactive) | > 100 µM (inactive) | > 100 µM (inactive) | > 100 µM (inactive) | > 100 µM (inactive) | > 100 µM (inactive) | > 100 µM (inactive) | > 100 µM (inactive) | > 100 µM (inactive) | > 100 µM (inactive) | > 100 | > 100 µM (inactive) | –
COC1CCON1C(=O)c1ccccc1 (stereo not drawn) | > 10 µM (inactive) | > 10 µM (inactive) | – | > 10 µM (inactive) | > 10 µM (inactive) | > 10 µM (inactive) | > 10 µM (inactive) | > 10 µM (inactive) | – | > 10 µM (inactive) | > 10 µM (inactive) | > 10 µM (inactive) | > 10 µM (inactive) | > 10 µM (inactive) | > 10 µM (inactive) | > 10 µM (inactive) | > 10 | > 10 µM (inactive) | > 10 µM (inactive)
COC12C=CC(CC1)C1C(=O)c3c(C)c(C)n(C)c3C(=O)C12 (stereo not drawn) | – | > 100 µM (inactive) | – | 27 µM (inactive) | > 100 µM (inactive) | > 100 µM (inactive) | – | > 100 µM (inactive) | 91.4 µM (inactive) | 67.6 µM (inactive) | 35.6 µM (inactive) | > 100 µM (inactive) | – | 25.9 µM (inactive) | > 100 µM (inactive) | > 100 µM (inactive) | 15.4 | – | > 100 µM (inactive)
O=C(CSc1nc2ccc(I)cc2c(=O)n1Cc1ccccc1)N/N=C/c1ccccc1 | > 100 µM (inactive) | 27 µM (inactive) | 11.5 µM (inactive) | 13.5 µM (inactive) | > 100 µM (inactive) | 17.9 µM (inactive) | 66.1 µM (inactive) | – | 48.8 µM (inactive) | 11.1 µM (inactive) | 26.3 µM (inactive) | 12 µM (inactive) | 25.2 µM (inactive) | 29.9 µM (inactive) | 23.1 µM (inactive) | 11.6 µM (inactive) | 22.1 | > 100 µM (inactive) | 26.9 µM (inactive)
COC(=O)C1(C(=O)OC)N=C(C)OC1c1ccoc1 (stereo not drawn) | > 100 µM (inactive) | > 100 µM (inactive) | > 100 µM (inactive) | > 100 µM (inactive) | > 100 µM (inactive) | > 100 µM (inactive) | > 100 µM (inactive) | – | > 100 µM (inactive) | > 100 µM (inactive) | > 100 µM (inactive) | > 100 µM (inactive) | > 100 µM (inactive) | > 100 µM (inactive) | > 100 µM (inactive) | > 100 µM (inactive) | > 100 | > 100 µM (inactive) | –
N#Cc1c(-c2ccccc2)cc(-c2ccc(Cl)cc2)[nH]c1=S | 20.3 µM (inactive) | 32.5 µM (inactive) | 65.9 µM (inactive) | 23.8 µM (inactive) | 28.4 µM (inactive) | 43.6 µM (inactive) | 39.5 µM (inactive) | 27 µM (inactive) | 58.5 µM (inactive) | 37.1 µM (inactive) | – | – | 38.4 µM (inactive) | 25.6 µM (inactive) | 18.7 µM (inactive) | 38.8 µM (inactive) | 25.8 | 45.6 µM (inactive) | –
Oc1cccc(-c2cn3cc(Cl)ccc3n2)c1 | 59.8 µM (inactive) | 34 µM (inactive) | 91.8 µM (inactive) | 47.2 µM (inactive) | > 100 µM (inactive) | 31.4 µM (inactive) | 57.1 µM (inactive) | 51.6 µM (inactive) | 37.2 µM (inactive) | – | 25.6 µM (inactive) | 38.8 µM (inactive) | 51.5 µM (inactive) | 91.4 µM (inactive) | 12.7 µM (inactive) | 31.7 µM (inactive) | 30.7 | 5.4 µM (inactive) | –
N#Cc1nn(C(N)=O)c(N)c1C#N | > 100 µM (inactive) | > 100 µM (inactive) | – | > 100 µM (inactive) | > 100 µM (inactive) | > 100 µM (inactive) | > 100 µM (inactive) | – | > 100 µM (inactive) | > 100 µM (inactive) | > 100 µM (inactive) | > 100 µM (inactive) | > 100 µM (inactive) | > 100 µM (inactive) | > 100 µM (inactive) | > 100 µM (inactive) | > 100 | > 100 µM (inactive) | > 100 µM (inactive)
COc1nc(=O)n(C2CC(F)C(CO)O2)cc1C (stereo not drawn) | > 100 µM (inactive) | > 100 µM (inactive) | – | > 100 µM (inactive) | > 100 µM (inactive) | > 100 µM (inactive) | > 100 µM (inactive) | > 100 µM (inactive) | > 100 µM (inactive) | – | > 100 µM (inactive) | > 10 µM (inactive) | > 100 µM (inactive) | > 100 µM (inactive) | > 100 µM (inactive) | > 100 µM (inactive) | > 100 | > 100 µM (inactive) | > 100 µM (inactive)
CC(C)(O)[C@@H]1CC[C@](C)(C2[C@@H](O)C[C@@]3(C)C4C[C@H](OC5OCC(O)C(O)C5O)[C@H]5C(C)(C)[C@@H](OC6OCC(O)C(O)C6OC6OCC(O)C(O)C6O)CC[C@@]56C[C@@]46CC[C@]23C)O1 (stereo partly drawn) | > 100 µM (inactive) | > 100 µM (inactive) | – | > 100 µM (inactive) | > 100 µM (inactive) | > 100 µM (inactive) | > 100 µM (inactive) | – | > 100 µM (inactive) | > 100 µM (inactive) | – | > 100 µM (inactive) | > 100 µM (inactive) | > 100 µM (inactive) | > 100 µM (inactive) | > 100 µM (inactive) | > 100 | > 100 µM (inactive) | > 100 µM (inactive)
